Experimental data: PubChem BioAssay (NCI)
Where “and” joins values, the source holds several entries; their conditions need not be identical. Equal values may be shown once.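 Protocol summary: plate cells (96-well), add compound at 5 concentrations, incubate 48 h, interpolate endpoints linearly. TGI: concentration producing complete growth inhibition.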

Tests used:
Experiment in all cases: inhibition of tumour cell growth, NCI panel, 48 h
SF-539 CNS = system: SF-539 CNS
HS 578T breast = system: HS 578T breast
K-562 leukemia = system: K-562 leukemia
HT29 colon = system: HT29 colon
MALME-3M melanoma = system: MALME-3M melanoma
OVCAR-3 ovarian = system: OVCAR-3 ovarian
CCRF-CEM leukemia = system: CCRF-CEM leukemia
SW-620 colon = system: SW-620 colon
KM12 colon = system: KM12 colon
MOLT-4 leukemia = system: MOLT-4 leukemia

Row | Structure (SMILES) | TGI (SF-539 CNS) | TGI (HS 578T breast) [µM] | TGI (K-562 leukemia) | TGI (HT29 colon) | TGI (MALME-3M melanoma) | TGI (OVCAR-3 ovarian) | TGI (CCRF-CEM leukemia) | TGI (SW-620 colon) | TGI (KM12 colon) | TGI (MOLT-4 leukemia) [µM]
1 | Cc1nn(-c2ccccc2)c2c1C(c1cc3ccccc3nc1Cl)NC(=O)N2 (stereo not given) | 45.9 µM | 96.2 | > 100 µM | 35.4 µM | 51.8 µM | > 100 µM | 71.6 µM | 36.7 µM | 53.1 µM | –
2 | COC1=CC(=O)c2c(c(-c3nc(C)cs3)cn2C)C1=O | 9.94 µM | 8.48 | 20.6 µM | 21 µM | – | 6.09 µM | 35.1 µM | 94.6 µM | 26.7 µM | > 80.9
3 | Cc1ccc(S(=O)(=O)n2c3c(c4ccccc42)CCN2C[C@H]([C@H](C)Br)CC[C@@H]32)cc1 | > 100 µM | – | > 100 µM | > 100 µM | > 100 µM | > 100 µM | > 100 µM | > 100 µM | > 100 µM | > 100
4 | OC[C@H]1O[C@@H]2O[C@@](COCc3ccccc3)([C@H](OCc3ccccc3)[C@H]2O)[C@@H]1OCc1ccccc1 | 32.9 µM | 31.7 | 25.2 µM | 17.3 µM | – | 27.7 µM | 35.4 µM | 38.6 µM | 32.1 µM | 21.9
5 | CCOC(=O)N1CCC(N[C@@H]2c3cc4c(cc3C(c3cc(OC)c(O)c(OC)c3)C3C(=O)OC[C@@H]32)OCO4)CC1 (stereo not given in full) | 5.78 µM and 4.71 µM | – | 22.4 µM and > 25 µM | 15.5 µM and 10.7 µM | 9.79 µM and 9.69 µM | 17.5 µM and 11.6 µM | 18.9 µM and > 25 µM | 13.7 µM and 7.55 µM | 9.2 µM and 7.56 µM | –
6 | C=CCc1cc(-c2nc(=S)[nH][nH]2)ccc1N=NNc1ccc(C(=O)O)cc1 | – | > 100 | > 100 µM | > 100 µM | > 100 µM | > 100 µM | > 100 µM | > 100 µM | > 100 µM | > 100
7 | COc1ccc(C(=O)/C=C/c2ccc(OCCCOc3ccc(/C=C/C(=O)c4ccc(OC)cc4)cc3)cc2)cc1 | 72.6 µM | > 100 | > 100 µM | > 100 µM | – | – | > 100 µM | > 100 µM | > 100 µM | > 100
8 | O=C(/C=C/c1ccccc1)Oc1ccc(C(=O)/C=C/c2ccccc2)cc1 | 22.3 µM | 69.4 | > 29.8 µM | 17.7 µM | – | 16 µM | 10.9 µM | 18.6 µM | 15.9 µM | 16.8
9 | O=C1C=C/C(=N\N=C(c2ccccc2)c2ccccc2)O1 | – | – | > 10 µM | > 10 µM | > 10 µM | – | > 10 µM | > 10 µM | > 10 µM | > 10
10 | CCCCCCCCCCCC[S+](C)C | 19.4 µM | – | 49.4 µM | 18.3 µM | 22.4 µM | 18.6 µM | 14.5 µM | 30.2 µM | 14.3 µM | 28.2
11 | Cc1ccc(/C=N\NC2c3cc(Cl)ccc3Nc3nc(=O)[nH]c(C)c32)cc1 (stereo not given) | > 100 µM | – | > 100 µM | > 100 µM | > 100 µM | > 100 µM | > 100 µM | > 100 µM | > 100 µM | > 100
12 | COc1ccc(-c2nc(SCC(=O)NNC(=S)Nc3ccccc3)[nH]c2-c2ccc(OC)cc2)cc1 | 30.9 µM | – | > 100 µM | > 100 µM | > 100 µM | 34.5 µM | > 100 µM | 91.2 µM | 85.9 µM | 25.3
13 | CNc1cc2c(c3ccccc13)C(CCl)CN2C(=O)c1cc2cc(OC)c(OC)c(OC)c2[nH]1 (stereo not given) | – | 0.0379 | – | 0.168 µM | – | 1.32 µM | 0.142 µM | 0.00733 µM | 0.103 µM | 0.023
14 | CCOc1cc(/C=C2/C(C)=NN(c3cccc(Cl)c3)/C2=N/c2nc3ccccc3s2)ccc1O | 57 µM | 68.6 | > 100 µM | > 100 µM | – | 50.8 µM | > 100 µM | > 100 µM | – | > 100
15 | CSC1=N/C(=C\c2ccc(C)cc2)C(=O)N1CN1CCCCC1 | – | > 100 | > 100 µM | > 100 µM | > 100 µM | > 100 µM | – | > 100 µM | > 100 µM | > 100
16 | On1c(-c2ccccc2)c(-c2ccccc2N2CCCC2)c2ccccc21 | > 100 µM | – | > 100 µM | > 100 µM | > 100 µM | > 100 µM | > 100 µM | > 100 µM | > 100 µM | > 100
17 | O=C1c2cc(-c3ccccc3)cnc2S(=O)(=O)N1c1ccc(Br)cc1 | 87.2 µM | 70.6 | – | > 100 µM | 96.9 µM | > 100 µM | > 100 µM | > 100 µM | > 100 µM | > 100
18 | COc1cc(OC)c2c(=O)cc(-c3ccc(OC)c(OC)c3OC)oc2c1 | > 100 µM | – | > 100 µM | > 100 µM | > 100 µM | > 100 µM | – | > 100 µM | > 100 µM | –
19 | O=C(O)CN1CCN2CCCCCN(CC1)CCN(CC(=O)O)CC2 | > 100 µM | > 100 | > 100 µM | > 100 µM | > 100 µM | > 100 µM | > 100 µM | > 100 µM | > 100 µM | –
20 | COC(C)(C)C1(O)CC[C@@H](C)CC1=O (stereo not given in full) | > 100 µM | > 100 | – | > 100 µM | > 100 µM | > 100 µM | – | > 100 µM | > 100 µM | > 100
21 | NS(=O)(=O)c1ccc(NC(=S)/N=C/C2=C(O)c3ccccc3C2=O)cc1 | > 100 µM | > 100 | > 100 µM | – | > 100 µM | > 100 µM | > 100 µM | > 100 µM | > 100 µM | > 100
22 | CC(c1ccccc1)N1CCN(C(C)c2ccccc2)CC1 (stereo not given) | – | > 100 | > 100 µM | > 100 µM | > 100 µM | > 100 µM | – | > 100 µM | > 100 µM | > 100
23 | Cn1c(SCc2ccc(F)cc2)nnc1C12CC3CC(CC(C3)C1)C2 | 65.1 µM | 85.1 | > 100 µM | 39.2 µM | 60.8 µM | 85.5 µM | 43.3 µM | > 100 µM | – | 57.1
